The results in this text go back to patent publication US20110129917A1, “CELL ISOLATION METHOD” (priority 2007, published 2011).

Each structure is given as a SMILES string.

This assay deals with microorganisms in soil. Briefly: effect of cell enlargers upon microorganisms in rice paddy soil, observed under a fluorescent microscope after CFDA-AM staining. The assay is classed as cell-based. The following applies: three cell enlargers added together: nalidixic acid 80 μg/g of soil, pipemidic acid 40 μg/g, piromidic acid 40 μg/g; anaerobic, 30° C., 24 hours; comparison without enlargers showed only round or oval cells. Here is the method: As a laboratory model of rice paddy soil where denitrification is active, a 10 mL vial bottle was filled with slightly less than 10 mL of soil (rice paddy soil from Tanashi Farm of the University of Tokyo), a selective substrate of denitrificans (sodium succinate, approximately 5 g/L) and sodium nitrate (approximately 5 g/L) and the gas phase was completely substituted with argon-acetylene. Culture was then carried out anaerobically at 30° C. […] A fluorescent dye CFDA-AM (final concentration 50 μM) was added to the cultured product and the product was observed under a fluorescent microscope (excited in blue, irradiated with blue light) (FIG. 3(b)). In combination, as a comparative example, the fluorescent dye was added and observation was carried out under a microscope with no cell enlargers added (FIG. 3(a)).

For the molecule `CCn1cc(C(=O)O)c(=O)c2cnc(N3CCNCC3)nc21` [pipemidic acid], the “effect of cell enlargers upon microorganisms in soil (cell shape and size under the microscope)” value is “elongated and larger cells were also observable”.

With `CCn1cc(C(=O)O)c(=O)c2cnc(N3CCCC3)nc21` [piromidic acid], the “effect of cell enlargers upon microorganisms in soil (cell shape and size under the microscope)” value is “elongated and larger cells were also observable”.
